Patent US12167744B2, “Nicotine liquid formulations for aerosol devices and methods thereof” (JUUL Labs, Inc., priority 2013, dated 2024)

How the values were obtained:
[1] = thermal decomposition of the acid; cited from earlier work
[2] = nicotine:tartaric acid 1:2; in PG or VG or any mixture of PG and VG at ambient conditions
Excerpt: In some embodiments, acids that have poor solubility in the composition constituents are inappropriate for use in certain embodiments of the compositions herein. […] As used herein, weight percentage (w/w) refers to the weight of the individual component over the weight of the total formulation.

Row | SMILES | decomposition temperature [1] | concentration at which no solution is produced [2]
1 | O=C(O)CC(O)(CC(=O)O)C(=O)O [citric acid] | 175 °C | 
2 | O=C(O)CC(O)C(=O)O (stereo not drawn) [malic acid] | 150 °C | 
3 | CN1CCCC1c1cccnc1.O=C(O)C(O)C(O)C(=O)O (stereo not drawn) [nicotine bitartrate] |  | < 0.5 % (w/w) nicotine
